Experimental data as given in US9468212B2, “Antifungal compositions” (DSM IP ASSETS B.V., priority 2013, dated 2016).
Several values for one entry are separate records, joined by “and”; a condition that tells them apart may be missing. Equal entries are not always repeated.

Experiments:
Botrytis cinerea = assay: Treatment of strawberries: wounded, inoculated with Botrytis cinerea, dipped in antifungal composition (Examples 5, 6); type: in vivo; conditions: 20° C.
Procedure: Twelve fresh, organic strawberries were used per treatment. Each strawberry was wounded with a 0.5 mm long cut and each wound was inoculated with 10 μl of a Botrytis cinerea suspension containing 1×10^5 of spores/ml. After a 3-hour incubation period at 20° C., each strawberry was dipped individually for 1 minute in a freshly prepared aqueous antifungal composition comprising either 500 ppm natamycin (DSM Food Specialties, Delft, The Netherlands), 500 ppm fludioxonil or both. Each antifungal composition also comprised 3.2% (w/w) beeswax, 0.8% (w/w) glycerol, 0.7% (w/w) polyoxyethylene sorbitan monostearate (Tween 60), 0.1% (w/w) polyoxyethylene sorbitan monooleate (Tween 80), 0.05% (w/w) methylhydroxyethyl-cellulose (MH EC), 0.03% (w/w) anti-foaming agent, 0.02% (w/w) xanthan gum, 0.02% (w/w) citric acid, 0.01% (w/w) lactic acid and 0.01% potassium sorbate. A composition without natamycin or fludioxonil was used as control. […] The treated strawberries were incubated in a closed box in the dark at 20° C. for 19 days.
The expected antifungal activity (E in %) of the combined antifungal composition comprising both active ingredients was calculated according to the Colby equation (Colby, 1967): E=X+Y−[(X·Y)/100] wherein X and Y are the observed antifungal activities (in %) of the individual active ingredients X and Y, respectively.
The experiment was conducted as described in Example 5, except for the fact that each wounded and inoculated strawberry was dipped individually for 1 minute in a freshly prepared aqueous antifungal composition comprising either 250 ppm natamycin (DSM Food Specialties, Delft, The Netherlands), 250 ppm fludioxonil or both. During incubation, the treated strawberries were assessed on mould growth according to the two methods described in Example 5.

mould = assay: Treatment of pineapples: mould incidence on the pineapple rinds after storage (Example 11); type: in vivo; conditions: 200 ppm natamycin, 250 ppm fludioxonil or both, 28 days of storage (21 days at 7.5° C., 7 days at 18 to 20° C.)
From the text: In this experiment pineapples were selected from a packing plant located in Costa Rica. These pineapples were selected based on uniformity in color and size. Furthermore, they were free from visual mold growth or any other visual damage caused by plagues or diseases.
The surface of the pineapples was first disinfected by immersion of the fruits for one minute in a solution comprising 150 ppm sodium hypochlorite. Next, the fruits were dried and thereafter the antimicrobial compositions were applied on the fruits using a modified watering can. This shower, to simulate the wax cascade used in pineapple packing plants, covered the rind of the fruits with a thin film of wax. The crown of the pineapple was not treated. […]
After 28 days, the mould incidence on the pineapple rinds was assessed using the following method. The number of pineapples with visual mould incidence on the rind per total of 40 pineapples was counted for all compositions. Subsequently, the antifungal activity (in %) of the individual and combined active ingredients (compositions B, C and D) was determined by calculating the reduction in mould incidence observed on the pineapple rind compared to composition A. The observed antifungal activity of composition D was compared to the expected antifungal activity of composition D according to the Colby method (Colby, 1967) as described in Example 5.

SMILES: C[C@@H]1C/C=C/C=C/C=C/C=C/[C@H](O[C@@H]2O[C@H](C)[C@@H](O)[C@H](N)[C@@H]2O)C[C@@H]2O[C@](O)(C[C@@H](O)C[C@H]3O[C@@H]3/C=C/C(=O)O1)C[C@H](O)[C@H]2C(=O)O [Natamycin, natamycin]
- Observed antifungal activity O (%) (Botrytis cinerea; 250 ppm natamycin, 250 ppm fludioxonil or both, 6 days): 23%
- Observed antifungal activity O (%) (Botrytis cinerea; 250 ppm natamycin, 250 ppm fludioxonil or both, 7 days): 23%
- Observed antifungal activity O (%) (Botrytis cinerea; 250 ppm natamycin, 250 ppm fludioxonil or both, 8 days): 18%
- Observed antifungal activity O (%) (Botrytis cinerea; 250 ppm natamycin, 250 ppm fludioxonil or both, 9 days): 13%
- Observed antifungal activity O (%) (Botrytis cinerea; 250 ppm natamycin, 250 ppm fludioxonil or both, 10 days): 4.8%
- Observed antifungal activity O (%) (Botrytis cinerea; 250 ppm natamycin, 250 ppm fludioxonil or both, 11 days): 4.8%
- Observed antifungal activity O (%) (Botrytis cinerea; 250 ppm natamycin, 250 ppm fludioxonil or both, 12 days): 1.2%
- Observed antifungal activity O (%) (Botrytis cinerea; 250 ppm natamycin, 250 ppm fludioxonil or both, 13 days): 1.2%
- Observed antifungal activity O (%) (Botrytis cinerea; 250 ppm natamycin, 250 ppm fludioxonil or both, 14 days): 1.2%
- Observed antifungal activity O (%) (Botrytis cinerea; 250 ppm natamycin, 250 ppm fludioxonil or both, 15 days): 0%
- Observed antifungal activity O (%) (Botrytis cinerea; 250 ppm natamycin, 250 ppm fludioxonil or both, 16 days): 0%
- Observed antifungal activity O (%) (Botrytis cinerea; 250 ppm natamycin, 250 ppm fludioxonil or both, 18 days): 0%
- Observed antifungal activity O (%) (Botrytis cinerea; 250 ppm natamycin, 250 ppm fludioxonil or both, 19 days): 0%
- Number of moulded strawberries/total number of 12 strawberries (Botrytis cinerea; 250 ppm natamycin, 250 ppm fludioxonil or both, Day 6-8): 11 and 11/12
- Number of moulded strawberries/total number of 12 strawberries (Botrytis cinerea; 250 ppm natamycin, 250 ppm fludioxonil or both, Day 9): 11 and 11/12
- Number of moulded strawberries/total number of 12 strawberries (Botrytis cinerea; 250 ppm natamycin, 250 ppm fludioxonil or both, Day 10): 12 and 12/12
- Number of moulded strawberries/total number of 12 strawberries (Botrytis cinerea; 250 ppm natamycin, 250 ppm fludioxonil or both, Day 11): 12 and 12/12
- Number of moulded strawberries/total number of 12 strawberries (Botrytis cinerea; 250 ppm natamycin, 250 ppm fludioxonil or both, Day 12): 12 and 12/12
- Number of moulded strawberries/total number of 12 strawberries (Botrytis cinerea; 250 ppm natamycin, 250 ppm fludioxonil or both, Day 13): 12 and 12/12
- Number of moulded strawberries/total number of 12 strawberries (Botrytis cinerea; 250 ppm natamycin, 250 ppm fludioxonil or both, Day 14): 12 and 12/12
- Number of moulded strawberries/total number of 12 strawberries (Botrytis cinerea; 250 ppm natamycin, 250 ppm fludioxonil or both, Day 15): 12 and 12/12
- Observed antifungal activity O (%) (Botrytis cinerea; 500 ppm natamycin, 500 ppm fludioxonil or both, 7 days): 11%
- Observed antifungal activity O (%) (Botrytis cinerea; 500 ppm natamycin, 500 ppm fludioxonil or both, 8 days): 14%
- Observed antifungal activity O (%) (Botrytis cinerea; 500 ppm natamycin, 500 ppm fludioxonil or both, 9 days): 4.8%
- Observed antifungal activity O (%) (Botrytis cinerea; 500 ppm natamycin, 500 ppm fludioxonil or both, 10 days): 2.4%
- Observed antifungal activity O (%) (Botrytis cinerea; 500 ppm natamycin, 500 ppm fludioxonil or both, 11 days): 2.4%
- Observed antifungal activity O (%) (Botrytis cinerea; 500 ppm natamycin, 500 ppm fludioxonil or both, 12 days): 0%
- Observed antifungal activity O (%) (Botrytis cinerea; 500 ppm natamycin, 500 ppm fludioxonil or both, 13 days): 0%
- Observed antifungal activity O (%) (Botrytis cinerea; 500 ppm natamycin, 500 ppm fludioxonil or both, 14 days): 0%
- Observed antifungal activity O (%) (Botrytis cinerea; 500 ppm natamycin, 500 ppm fludioxonil or both, 15 days): 0%
- Observed antifungal activity O (%) (Botrytis cinerea; 500 ppm natamycin, 500 ppm fludioxonil or both, 16 days): 0%
- Observed antifungal activity O (%) (Botrytis cinerea; 500 ppm natamycin, 500 ppm fludioxonil or both, 18 days): 0%
- Observed antifungal activity O (%) (Botrytis cinerea; 500 ppm natamycin, 500 ppm fludioxonil or both, 19 days): 0%
- Number of moulded strawberries/total number of 12 strawberries (Botrytis cinerea; 500 ppm natamycin, 500 ppm fludioxonil or both, Day 7): 12 and 12/12
- Number of moulded strawberries/total number of 12 strawberries (Botrytis cinerea; 500 ppm natamycin, 500 ppm fludioxonil or both, Day 8): 12 and 12/12
- Number of moulded strawberries/total number of 12 strawberries (Botrytis cinerea; 500 ppm natamycin, 500 ppm fludioxonil or both, Day 9): 12 and 12/12
- Number of moulded strawberries/total number of 12 strawberries (Botrytis cinerea; 500 ppm natamycin, 500 ppm fludioxonil or both, Day 10-11): 12 and 12/12
- Number of moulded strawberries/total number of 12 strawberries (Botrytis cinerea; 500 ppm natamycin, 500 ppm fludioxonil or both, Day 12): 12 and 12/12
- Number of moulded strawberries/total number of 12 strawberries (Botrytis cinerea; 500 ppm natamycin, 500 ppm fludioxonil or both, Day 13): 12 and 12/12
- Number of moulded strawberries/total number of 12 strawberries (Botrytis cinerea; 500 ppm natamycin, 500 ppm fludioxonil or both, Day 14): 12 and 12/12
- Number of moulded strawberries/total number of 12 strawberries (Botrytis cinerea; 500 ppm natamycin, 500 ppm fludioxonil or both, Day 15): 12 and 12/12
- Number of moulded strawberries/total number of 12 strawberries (Botrytis cinerea; 500 ppm natamycin, 500 ppm fludioxonil or both, Day 16-17): 12 and 12/12
- Observed antifungal activity O (%) (mould): 35%
